Test results published in patent US10370402B2, “Process for the preparation of fluticasone propionate form 1” (Pfizer Limited, priority 2011, dated 2019).

Legend:
[1] = Particle size distribution of recrystallised fluticasone propionate by laser diffraction (Malvern Mastersizer 2000); assay type: physicochemical; settings: for D[v, 0.1]: 10th percentile volume diameter; for D[v, 0.1] / D[v, 0.5] / D[v, 0.9]: recrystallised batch, before micronisation; for D[v, 0.5]: 50th percentile (median) volume diameter; for D[v, 0.9]: 90th percentile volume diameter; for Ingoing particle size D[v, 0.5]: before micronisation (Table 3)
Procedure: The particle size distribution was measured on the Malvern Mastersizer 2000 laser diffraction system equipped with a Hydro 2000S liquid dispersion unit and flow cell. The sample was prepared by adding 15 drops of Tween 80 to crystallised fluticasone propionate within the glass 4 dram vial and mixing into a paste using a spatula, until all of the powder is wetted out and a smooth, uniform paste is achieved. Then the paste is added to the Hydro 2000S containing dispersant (0.1% Tween 80 in deionised water) using a spatula. When the obscuration target is achieved (20%±5%) the sample is left to stir within the Hydro 2000S for 1 minute to allow the particles to wet out, disperse and ensure a stable obscuration is achieved. Measurement is initiated after 1 minute of stirring.
The particle size data expressed as D[v, 0.1], D[v, 0.5] and D[v, 0.9] obtained from examples 2-9 are summarized below in Table 2. D[v, 0.1], D[v, 0.5] and D[v, 0.9] represent the 10th percentile volume diameter; 50th percentile volume diameter; and 90th percentile volume diameter respectively. In general the n^th percentile volume diameter is defined so that n % of the particles have a volume equivalent particle diameter smaller than or equal to the n^th percentile diameter. In the case of D[v, 0.5], it coincides with the median value.

[2] = Particle size distribution of micronised fluticasone propionate by laser diffraction (Sympatec HELOS); assay type: physicochemical; settings: after jet milling, JetPharma MC150, feed 15 g/min, mill pressure 3.5 bar, venturi 5.5 bar
Procedure: The particle size distribution was measured on the Sympatec HELOS laser diffraction system (with R1 optical module giving a measuring range of 0.1/0.18-35 μm) together with SUCELL dispersing module. 100 mg of micronised sample is weighed into a 4-dram vial and 15 drops (approximately 0.5 mL) of Tween 80 is added from a 3 ml wide-tipped pipette to the powder. The mixture is then carefully stirred into a paste until all the particles are wetted out and a uniform smooth mixture is achieved. Then the paste is added to the SUCELL containing dispersant (0.025% Tween 80 in deionised water) using a spatula. Once the optical concentration target is achieved (10-15%) then a measurement is taken.
Particles were micronized using a JetPharma MC150 (6 inch spiral jet mill) using the following conditions: • Feed rate: 15 g/min • Mill pressure: 3.5 bar • Venturi Pressure: 5.5 bar • Micronisation scale: 0.5 Kg.

| Compound | D[v, 0.1] [1] [μm] | D[v, 0.5] [1] [μm] | D[v, 0.9] [1] [μm] | Ingoing particle size D[v, 0.5] [1] [μm] | Post-micronisation particle size D[v, 0.5] [2] [μm] |
| --- | --- | --- | --- | --- | --- |
| CCC(=O)O[C@]1(C(=O)SCF)[C@H](C)C[C@H]2[C@@H]3C[C@H](F)C4=CC(=O)C=C[C@]4(C)[C@@]3(F)[C@@H](O)C[C@@]21C [Example 4, S-(fluoromethyl)-6α,9-difluoro-11β-17-dihydroxy-16α-methyl-3-oxoandrosta-1,4-diene-17β-carbothioate, 17-propionate] | 15.4 | 55.1 | 135.9 | – | – |
| CCC(=O)O[C@]1(C(=O)SCF)[C@H](C)C[C@H]2[C@@H]3C[C@H](F)C4=CC(=O)C=C[C@]4(C)[C@@]3(F)[C@@H](O)C[C@@]21C [Example 2, S-(fluoromethyl)-6α,9-difluoro-11β-17-dihydroxy-16α-methyl-3-oxoandrosta-1,4-diene-17β-carbothioate, 17-propionate] | 2.5 | 6.7 | 15.7 | – | – |
| CCC(=O)O[C@]1(C(=O)SCF)[C@H](C)C[C@H]2[C@@H]3C[C@H](F)C4=CC(=O)C=C[C@]4(C)[C@@]3(F)[C@@H](O)C[C@@]21C [Example 3, S-(fluoromethyl)-6α,9-difluoro-11β-17-dihydroxy-16α-methyl-3-oxoandrosta-1,4-diene-17β-carbothioate, 17-propionate] | 2.1 | 5.1 | 11.357 | – | – |
| CCC(=O)O[C@]1(C(=O)SCF)[C@H](C)C[C@H]2[C@@H]3C[C@H](F)C4=CC(=O)C=C[C@]4(C)[C@@]3(F)[C@@H](O)C[C@@]21C [Example 5, S-(fluoromethyl)-6α,9-difluoro-11β-17-dihydroxy-16α-methyl-3-oxoandrosta-1,4-diene-17β-carbothioate, 17-propionate] | 2.1 | 5.9 | 15.2 | – | – |
| CCC(=O)O[C@]1(C(=O)SCF)[C@H](C)C[C@H]2[C@@H]3C[C@H](F)C4=CC(=O)C=C[C@]4(C)[C@@]3(F)[C@@H](O)C[C@@]21C [Example 6, S-(fluoromethyl)-6α,9-difluoro-11β-17-dihydroxy-16α-methyl-3-oxoandrosta-1,4-diene-17β-carbothioate, 17-propionate] | 2.0 | 5.3 | 12.4 | – | – |

Results, then the compound that gave them:

| D[v, 0.1] [1] [μm] | D[v, 0.5] [1] [μm] | D[v, 0.9] [1] [μm] | Ingoing particle size D[v, 0.5] [1] [μm] | Post-micronisation particle size D[v, 0.5] [2] [μm] | Compound |
| --- | --- | --- | --- | --- | --- |
| 6.2 | 22.5 | 53.4 | 22.5 | 4.0 | CCC(=O)O[C@]1(C(=O)SCF)[C@H](C)C[C@H]2[C@@H]3C[C@H](F)C4=CC(=O)C=C[C@]4(C)[C@@]3(F)[C@@H](O)C[C@@]21C [Example 9, S-(fluoromethyl)-6α,9-difluoro-11β-17-dihydroxy-16α-methyl-3-oxoandrosta-1,4-diene-17β-carbothioate, 17-propionate] |
| 3.4 | 11.4 | 32.1 | – | – | CCC(=O)O[C@]1(C(=O)SCF)[C@H](C)C[C@H]2[C@@H]3C[C@H](F)C4=CC(=O)C=C[C@]4(C)[C@@]3(F)[C@@H](O)C[C@@]21C [Example 7, S-(fluoromethyl)-6α,9-difluoro-11β-17-dihydroxy-16α-25 methyl-3-oxoandrosta-1,4-diene-17β-carbothioate, 17-propionate] |
| 1.3 | 2.8 | 5.6 | 2.8 | 2.3 | CCC(=O)O[C@]1(C(=O)SCF)[C@H](C)C[C@H]2[C@@H]3C[C@H](F)C4=CC(=O)C=C[C@]4(C)[C@@]3(F)[C@@H](O)C[C@@]21C [Example 8, S-(fluoromethyl)-6α,9-difluoro-11β-17-dihydroxy-16α-methyl-3-oxoandrosta-1,4-diene-17β-carbothioate, 17-propionate] |
